# In patent publication US20060216774A1 (priority 2003, published 2006):
# Legend:
# [1] = target: icl1 (isocitrate lyase) (Mycobacterium tuberculosis, UniProt P9WKK7); conditions: read-out: Km for icl1; substrate isocitrate; cited from earlier work
# [2] = target: icl2 (isocitrate lyase) (Mycobacterium tuberculosis, UniProt Q8VJU4); conditions: read-out: Km for icl2; substrate isocitrate; cited from earlier work
# [3] = target: isocitrate lyase (icl) (Escherichia coli, UniProt P0A9G6); conditions: read-out: Km of icl; E. coli, substrate isocitrate; cited from earlier work
# [4] = test system: O=C(O)CC(C(=O)O)C(O)C(=O)O; assay: purified protein, by the assay type; conditions: other: Lineweaver-Burke plot and Cornish-Bowden direct linear plot
# Chain of isocitrate lyase (icl) (P0A9G6 whole entry): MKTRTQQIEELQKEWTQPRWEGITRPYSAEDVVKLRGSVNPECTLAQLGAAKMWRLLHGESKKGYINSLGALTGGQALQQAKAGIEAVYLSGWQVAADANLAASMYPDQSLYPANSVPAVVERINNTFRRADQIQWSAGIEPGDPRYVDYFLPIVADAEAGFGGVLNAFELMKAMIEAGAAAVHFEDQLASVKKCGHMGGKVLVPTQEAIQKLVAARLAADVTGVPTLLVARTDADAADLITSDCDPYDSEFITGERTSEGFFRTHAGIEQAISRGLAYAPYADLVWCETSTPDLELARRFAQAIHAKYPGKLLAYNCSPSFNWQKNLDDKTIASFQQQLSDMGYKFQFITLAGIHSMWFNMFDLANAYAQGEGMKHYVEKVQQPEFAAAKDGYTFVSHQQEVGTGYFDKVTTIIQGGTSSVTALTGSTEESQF
# Chain of icl1 (isocitrate lyase) (P9WKK7 whole entry): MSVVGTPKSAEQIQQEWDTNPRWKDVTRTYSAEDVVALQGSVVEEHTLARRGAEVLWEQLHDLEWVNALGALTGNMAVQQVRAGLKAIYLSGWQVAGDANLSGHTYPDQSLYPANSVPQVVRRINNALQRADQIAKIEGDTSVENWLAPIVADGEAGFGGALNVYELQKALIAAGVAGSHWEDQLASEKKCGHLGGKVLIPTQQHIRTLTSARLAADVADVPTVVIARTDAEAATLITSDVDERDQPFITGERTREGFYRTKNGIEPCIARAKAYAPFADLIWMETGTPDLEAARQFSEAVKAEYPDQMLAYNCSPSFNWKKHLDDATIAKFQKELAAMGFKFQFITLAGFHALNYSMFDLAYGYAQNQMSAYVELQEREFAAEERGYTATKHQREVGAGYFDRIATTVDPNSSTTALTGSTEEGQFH
# Chain of icl2 (isocitrate lyase) (Q8VJU4 whole entry): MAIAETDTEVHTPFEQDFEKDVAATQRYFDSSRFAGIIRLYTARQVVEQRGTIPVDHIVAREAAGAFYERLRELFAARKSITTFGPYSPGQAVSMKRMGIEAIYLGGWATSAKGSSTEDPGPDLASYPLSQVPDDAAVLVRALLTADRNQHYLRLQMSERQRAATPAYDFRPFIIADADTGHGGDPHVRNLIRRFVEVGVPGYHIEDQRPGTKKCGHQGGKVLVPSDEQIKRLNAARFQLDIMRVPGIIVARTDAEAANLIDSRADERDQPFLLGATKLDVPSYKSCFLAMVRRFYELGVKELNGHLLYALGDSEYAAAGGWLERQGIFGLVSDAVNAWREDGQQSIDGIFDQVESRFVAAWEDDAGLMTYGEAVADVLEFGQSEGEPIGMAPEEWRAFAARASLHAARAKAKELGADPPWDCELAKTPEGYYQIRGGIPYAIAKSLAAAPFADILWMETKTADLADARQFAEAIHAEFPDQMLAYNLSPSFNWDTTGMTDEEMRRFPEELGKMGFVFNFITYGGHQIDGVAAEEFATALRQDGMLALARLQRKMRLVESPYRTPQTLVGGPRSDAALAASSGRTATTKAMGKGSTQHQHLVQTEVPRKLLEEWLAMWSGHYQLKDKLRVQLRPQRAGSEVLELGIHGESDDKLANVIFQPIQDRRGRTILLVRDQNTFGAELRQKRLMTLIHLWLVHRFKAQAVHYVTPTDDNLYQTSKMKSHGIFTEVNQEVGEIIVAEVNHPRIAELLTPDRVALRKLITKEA
Compound,Km [1] [µM],Km [2] [µM],Km [3] [µM],Km [4] [µM]
O=C(O)CC(C(=O)O)C(O)C(=O)O (stereo not shown) [isocitrate],~115,~1500,604,
"icd1 (isocitrate dehydrogenase, Rv 3339c) (Mycobacterium tuberculosis H37Rv)",,,,12
